Assay [1] concerns the target recombinant RORγ Ligand Binding Domain (LBD) protein (Homo sapiens (Human), UniProt P51449). As to the kind of experiment: Radio-Ligand RORγ Binding Assay (Assay 1). Conditions: competition with 25-hydroxy [26,27-3H]-cholesterol, SPA. The method, then:
Radio-Ligand RORγ Binding Assay (Assay 1)
Compounds described herein were tested for ability to bind to RORγ in a cell-free competition assay with commercially available radio-ligand (RL), 25-hydroxy [26,27-^3H]-cholesterol (PerkinElmer, Cat. #NET674250UC), for a ligand binding site on a recombinant RORγ Ligand Binding Domain (LBD) protein expressed as a 6×His-Glutathione-S-Transferase (GST) fusion. The assay was performed in 96-well SPA plates (PerkinElmer, Cat. #1450-401) in 50 mM HEPES buffer, pH 7.4, containing 150 mM NaCl, 5 mM MgCl2, 10% (v/v) glycerol, 2 mM CHAPS, 0.5 mM β-octylglucopyranoside and 5 mM DTT. Tested compounds were dissolved in DMSO, and semi-log (3.162×) serial dilutions of the compounds were prepared in the same solvent. Two μL of the DMSO solutions were mixed with 28 μL of 8.6 nM 25-hydroxy [26,27-^3H]-cholesterol and 50 μL of 24 nM RORγ LBD. The plate was shaken at 700 rpm for 20 min and incubated for 10 min at rt, after which 40 μL of poly-Lys YSi SPA beads (PerkinElmer, Cat. #RPNQ0010) were added to achieve […] of the beads per well. The plate was incubated on an orbital shaker for 20 min and then for 10 min without agitation at rt. SPA signal for tritium beta radiation was registered on PerkinElmer Microbeta plate reader. […] The percent inhibition vs. concentration data were fit into a four-parameter model, and IC50 values were calculated from the fit as the concentrations corresponding to the inflection points on the dose-response curves. Inhibitory constants (Ki) were calculated using the following equation, where [RL] is the concentration in the assay and KD is a dissociation constant of 25-hydroxy [26,27-^3H]-cholesterol: […]

Assay [2] deals with full-length RORγt in Jurkat cells (Homo sapiens (Human), UniProt P51449). As to the kind of experiment: RORγt 5×RORE Assay in Jurkat Cells (Assay 2). It is filed as cell-based. Conditions: 5×RORE Nanoluc luciferase reporter. On the procedure:
RORγt 5×RORE Assay in Jurkat Cells (Assay 2)
Compounds described herein were tested for RORγ inverse agonist activity in a cell-based, transcriptional activity assay. Secreted Nanoluc® luciferase was used as a reporter for transcriptional activity of the full-length RORγt in Jurkat cells (ATCC, Cat. #TIB-152). […] (Promega, Cat. #N1021) using KpnI and HindIII restriction sites. […] After 5-6 hrs of incubation at 37° C./5% CO2, the cells were collected, resuspended in phenol-red free RPMI media containing 10% (v/v) delipidated FBS (Hyclone, Cat. #SH30855.03) and dispensed into 96-well clear bottom tissue culture plates (CoStar, Cat. #3603), at 80,000 cells per well. Tested compounds were added to the cells in the same media (final concentration of DMSO was 0.1% (v/v)), and the plates were incubated at 37° C./5% CO2 for 16-18 hrs. Luciferase activity in the conditioned supernatants was determined with NanoGlo® assay reagents (Promega, Cat. #N1130).
For orientation: Reporter assays use an easily measured gene product as a stand-in for the process of interest.

recombinant RORγ Ligand Binding Domain (LBD) protein, sequence (P51449 269-508): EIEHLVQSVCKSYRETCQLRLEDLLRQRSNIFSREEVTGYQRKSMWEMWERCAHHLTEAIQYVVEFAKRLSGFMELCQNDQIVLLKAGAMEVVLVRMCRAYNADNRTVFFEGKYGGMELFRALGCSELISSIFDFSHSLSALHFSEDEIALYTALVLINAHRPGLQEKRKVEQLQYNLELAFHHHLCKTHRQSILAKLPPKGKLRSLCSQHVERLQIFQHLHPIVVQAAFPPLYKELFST
full-length RORγt in Jurkat cells, sequence (P51449 other isoform, or with tags, fused parts or gaps): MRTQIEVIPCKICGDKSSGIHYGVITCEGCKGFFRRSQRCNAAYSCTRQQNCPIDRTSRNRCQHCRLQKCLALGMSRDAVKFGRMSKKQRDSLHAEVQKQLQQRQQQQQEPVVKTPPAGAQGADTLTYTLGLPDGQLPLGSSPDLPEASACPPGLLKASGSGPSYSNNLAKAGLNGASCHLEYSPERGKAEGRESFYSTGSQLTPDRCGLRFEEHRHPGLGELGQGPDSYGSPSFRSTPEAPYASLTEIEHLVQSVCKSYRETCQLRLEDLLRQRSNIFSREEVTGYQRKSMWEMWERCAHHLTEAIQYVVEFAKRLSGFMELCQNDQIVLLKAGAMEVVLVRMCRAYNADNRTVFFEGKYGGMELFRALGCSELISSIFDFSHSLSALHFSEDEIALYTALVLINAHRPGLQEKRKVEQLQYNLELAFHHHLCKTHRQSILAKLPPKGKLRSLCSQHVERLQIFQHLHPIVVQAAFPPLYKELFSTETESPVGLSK

Consider `CCc1nc2cc(C(=O)NCc3ccc(S(=O)(=O)CC)cc3)ccc2n1[C@@H](C)c1cccc2c1OC(F)(F)O2` [I-125.1, (S)-1-(1-(2,2-difluorobenzo[d][1,3]dioxol-4-yl)ethyl)-2-ethyl-N-(4-(ethylsulfonyl)benzyl)-1H-benzo[d]imidazole-5-carboxamide], for which the inhibition constant (Ki) (usually a measure of affinity in units of concentration, obtained from inhibition or displacement) in assay [1] was less than 100 nM. The IC50 (as a rule, the concentration at which inhibition is half-maximal) in assay [2] was greater than 1000 nM.

Consider `CCS(=O)(=O)c1ccc(CNC(=O)c2ccc3c(c2)nc(C2CCC2)n3Cc2cccc3c2OC(F)(F)O3)nc1` [I-65, 2-cyclobutyl-1-((2,2-difluorobenzo[d][1,3]dioxol-4-yl)methyl)-N-((5-(ethylsulfonyl)pyridin-2-yl)methyl)-1H-benzo[d]imidazole-5-carboxamide], for which, in assay [1], the inhibition constant (Ki) is less than 100 nM. The IC50 in assay [2] is less than 100 nM.

As to `NC(=O)CS(=O)(=O)N1CCC(CNC(=O)c2ccc3c(c2)nc(C(F)(F)F)n3Cc2cccc3c2OC(F)(F)O3)CC1` [I-78, N-((1-((2-amino-2-oxoethyl)sulfonyl)piperidin-4-yl)methyl)-1-((2,2-difluorobenzo[d][1,3]dioxol-4-yl)methyl)-2-(trifluoromethyl)-1H-benzo[d]imidazole-5-carboxamide], the Ki in assay [1] was less than 100 nM. Also, the 50% inhibitory concentration (IC50) in assay [2] is less than 100 nM.

For `COC(=O)CS(=O)(=O)c1ccc(CNC(=O)c2ccc3c(c2)nc(C(F)(F)F)n3Cc2cccc3c2OC(F)(F)O3)cc1` [I-53, methyl 2-((4-((1-((2,2-difluorobenzo[d][1,3]dioxol-4-yl)methyl)-2-(trifluoromethyl)-1H-benzo[d]imidazole-5-carboxamido)methyl)phenyl)sulfonyl)acetate], in assay [1], the inhibitory constant (Ki) was less than 100 nM. This molecule gave an IC50 in assay [2] of 100 to 1000 nM.

On to `CCS(=O)(=O)c1ccc(CNC(=O)c2ccc3c(c2)nc([C@@H]2CCCO2)n3Cc2cccc3c2OC(F)(F)O3)cc1` [I-39.2, (S)-1-((2,2-difluorobenzo[d][1,3]dioxol-4-yl)methyl)-N-(4-(ethylsulfonyl)benzyl)-2-(tetrahydrofuran-2-yl)-1H-benzo[d]imidazole-5-carboxamide], for which the Ki in assay [1] was less than 100 nM. Moreover, the 50% inhibitory concentration (IC50) in assay [2] is less than 100 nM.

For the molecule `CCS(=O)(=O)c1ccc(CNC(=O)c2ccc3c(c2)nc(C(F)(F)F)n3Cc2cccc3cnn(C)c23)cc1` [I-137, N-(4-(ethylsulfonyl)benzyl)-1-((1-methyl-1H-indazol-7-yl)methyl)-2-(trifluoromethyl)-1H-benzo[d]imidazole-5-carboxamide], the Ki in assay [1] was less than 100 nM. In assay [2], this molecule gave a half-inhibitory concentration (IC50) of less than 100 nM.

For the molecule `CCS(=O)(=O)c1ccc(CNC(=O)c2ccc3c(c2)nc(C(F)(F)F)n3Cc2cccc3ocnc23)cc1` [I-147, 1-(benzo[d]oxazol-4-ylmethyl)-N-(4-(ethylsulfonyl)benzyl)-2-(trifluoromethyl)-1H-benzo[d]imidazole-5-carboxamide], the Ki in assay [1] is less than 100 nM. In addition, the IC50 in assay [2] lay in the range of 100 to 1000 nM.

On to `CCS(=O)(=O)c1ccc(CNC(=O)c2ccc3c(c2)nc(C)n3Cc2ccccc2)cc1` [I-150, 1-benzyl-N-(4-(ethylsulfonyl)benzyl)-2-methyl-1H-benzo[d]imidazole-5-carboxamide], for which, in assay [1], the inhibition constant Ki was in the range of 100 to 1000 nM. The molecule further returned an IC50 in assay [2] greater than 1000 nM.

Turning to `N#Cc1ccc([C@H](CO)NC(=O)c2ccc3c(c2)nc(C(F)(F)F)n3Cc2cccc3c2OC(F)(F)O3)cc1` [I-122, (R)-N-(1-(4-cyanophenyl)-2-hydroxyethyl)-1-((2,2-difluorobenzo[d][1,3]dioxol-4-yl)methyl)-2-(trifluoromethyl)-1H-benzo[d]imidazole-5-carboxamide], the Ki in assay [1] was less than 100 nM. In addition, the concentration for half-maximal inhibition (IC50) in assay [2] was less than 100 nM.

Take `CCS(=O)(=O)c1ccc(CNC(=O)c2ccc3c(c2)nc(N(C)C)n3Cc2cccc3c2OC(F)(F)O3)cc1` [I-162, 1-((2,2-difluorobenzo[d][1,3]dioxol-4-yl)methyl)-2-(dimethylamino)-N-(4-(ethylsulfonyl)benzyl)-1H-benzo[d]imidazole-5-carboxamide]: in assay [1], the Ki was less than 100 nM. Also, the concentration for half-maximal inhibition (IC50) in assay [2] is less than 100 nM.

For `CCS(=O)(=O)c1ccc(CNC(=O)c2ccc3c(c2)nc(C(F)(F)F)n3Cc2cccc(C#N)c2)cc1` [I-90, 1-(3-cyanobenzyl)-N-(4-(ethylsulfonyl)benzyl)-2-(trifluoromethyl)-1H-benzo[d]imidazole-5-carboxamide], the Ki in assay [1] was less than 100 nM. In addition, the IC50 in assay [2] is less than 100 nM.

With `COc1cc(Cn2c(C(F)(F)F)nc3cc(C(=O)NCc4ccc(S(=O)(=O)CCO)cc4)ccc32)cc(OC)c1` [I-124, 1-(3,5-dimethoxybenzyl)-N-(4-((2-hydroxyethyl)sulfonyl)benzyl)-2-(trifluoromethyl)-1H-benzo[d]imidazole-5-carboxamide], in assay [1], the Ki was less than 100 nM. In assay [2], this molecule registered a half-maximal inhibitory concentration (IC50) greater than 1000 nM.

Turning to `CCS(=O)(=O)c1ccc(CNC(=O)c2ccc3c(c2)nc(C(F)(F)F)n3Cc2cccc3nonc23)cc1` [I-151, 1-(benzo[c][1,2,5]oxadiazol-4-ylmethyl)-N-(4-(ethylsulfonyl)benzyl)-2-(trifluoromethyl)-1H-benzo[d]imidazole-5-carboxamide], the inhibition constant (Ki) in assay [1] is less than 100 nM. In addition, the 50% inhibitory concentration (IC50) in assay [2] was less than 100 nM.

Regarding `CCS(=O)(=O)c1ccc([C@H](CO)NC(=O)c2ccc3c(c2)nc(C(F)F)n3Cc2cccc3c2OC(F)(F)O3)cc1` [I-17, (R)-1-((2,2-difluorobenzo[d][1,3]dioxol-4-yl)methyl)-2-(difluoromethyl)-N-(1-(4-(ethylsulfonyl)phenyl)-2-hydroxyethyl)-1H-benzo[d]imidazole-5-carboxamide], in assay [1], the Ki was less than 100 nM. The IC50 in assay [2] was less than 100 nM.

Take `CCc1nc2cc(C(=O)NCc3ccc(S(=O)(=O)CC)cc3)ccc2n1Cc1cccc2c1OC(F)(F)O2` [I-29, 1-((2,2-difluorobenzo[d][1,3]dioxol-4-yl)methyl)-2-ethyl-N-(4-(ethylsulfonyl)benzyl)-1H-benzo[d]imidazole-5-carboxamide]: the inhibition constant Ki in assay [1] was less than 100 nM. This molecule displayed a 50% inhibitory concentration (IC50) in assay [2] of less than 100 nM.

As to `CCS(=O)(=O)c1ccc([C@H](CO)NC(=O)c2ccc3c(c2)nc(C(F)(F)F)n3Cc2cccc3c2OCO3)cc1` [I-81, (R)-1-(benzo[d][1,3]dioxol-4-ylmethyl)-N-(1-(4-(ethylsulfonyl)phenyl)-2-hydroxyethyl)-2-(trifluoromethyl)-1H-benzo[d]imidazole-5-carboxamide], the Ki in assay [1] is less than 100 nM. In assay [2], this molecule returned a half-maximal inhibitory concentration (IC50) of less than 100 nM.

As to `CNS(=O)(=O)c1ccc(CNC(=O)c2ccc3c(c2)nc(C2(F)CC2)n3Cc2cccc3c2OC(F)(F)O3)cc1` [I-42, 1-((2,2-difluorobenzo[d][1,3]dioxol-4-yl)methyl)-2-(1-fluorocyclopropyl)-N-(4-(N-methylsulfamoyl)benzyl)-1H-benzo[d]imidazole-5-carboxamide], the inhibition constant (Ki) in assay [1] is less than 100 nM. The molecule further returned an IC50 in assay [2] of less than 100 nM.

As for `CCS(=O)(=O)c1ccc(CNC(=O)c2ccc3c(c2)nc(C2CC2)n3Cc2cc(O)cc(OC(F)(F)F)c2)cc1` [I-153, 2-cyclopropyl-N-(4-(ethylsulfonyl)benzyl)-1-(3-hydroxy-5-(trifluoromethoxy)benzyl)-1H-benzo[d]imidazole-5-carboxamide], the Ki in assay [1] was less than 100 nM. For the same molecule, the IC50 in assay [2] is less than 100 nM.

Regarding `CCc1nc2cc(C(=O)N[C@@H](CO)c3ccc(S(=O)(=O)CC)cc3)ccc2n1Cc1cccc2c1OC(F)(F)O2` [I-16, (R)-1-((2,2-difluorobenzo[d][1,3]dioxol-4-yl)methyl)-2-ethyl-N-(1-(4-(ethylsulfonyl)phenyl)-2-hydroxyethyl)-1H-benzo[d]imidazole-5-carboxamide], the Ki in assay [1] was less than 100 nM. Also, the IC50 in assay [2] was less than 100 nM.

`CCS(=O)(=O)c1ccc(CNC(=O)c2ccc3c(c2)nc(C(C)(F)F)n3Cc2cccc3c2OC(F)(F)O3)cc1` [I-38, 1-((2,2-difluorobenzo[d][1,3]dioxol-4-yl)methyl)-2-(1,1-difluoroethyl)-N-(4-(ethylsulfonyl)benzyl)-1H-benzo[d]imidazole-5-carboxamide]: the Ki in assay [1] was less than 100 nM. Moreover, the IC50 in assay [2] is less than 100 nM.

Values taken from patent publication US10829481B2, “Benzimidazole derivatives as modulators of ROR-gamma” (Vitae Pharmaceuticals, LLC, priority 2016, dated 2020).
